Source: patent US20230029496A1, “AMINO ACID ALTERNATIVE CURING SYSTEM” (THE TEXAS A&M UNIVERSITY SYSTEM, priority 2019, published 2023)
Values joined by “and” are separate entries in the source; they are usually repeats but may differ in a detail not shown here. Identical values can stand only once. “Also recorded” adds a separate entry of the source. Like-named read-outs stand apart in the source and are kept apart here. Marks after values point to notes of the source that are not given here.

Tests used:
NOS system [1] = assay: Residual nitrite in test beef frankfurters (Example 12); conditions: for Nitrite: 7 days of storage
Experimental: (§1) The remaining nonmeat ingredients were added (except the antimicrobial) and chopped at 2000 rpm for one minute. Protecta (sodium acetate antimicrobial) was added and the emulsion chopped at 4000 rpm for one minute. The emulsion was evacuated and placed into a vacuum assisted stuffer where each test emulsion was stuffed and twist linked into 22 mm cellulose casings weighing 40 g each. The frankfurter links were hung on smokehouse trucks, placed into a commercial smokehouse and thermally processed to 160° F. (Table 18).
(§2) After thermal processing and chilling (40° F.), the casings were peeled from the frankfurters and were vacuum packaged and stored under refrigerated conditions for residual nitrite and nitrosylation. […] This was done to determine if the L-arginine could the NOS system to generate sufficient NO for cure color development and residual nitrite for antioxidant and antimicrobial effect.

[2] = tested on: nitric oxide synthase system; assay: Residual nitrite equivalency scale, key findings across all species (Example 26)
[3] = tested on: nitric oxide synthase system; conditions: pork; for Residual Nitrite, LSMean main effect of Temperature: L-arginine
Experimental: (§3) Fresh ground meat (beef, pork or poultry) was separated in ˜0.5 Kg batches and mixed with 2% salt and 10% added water. […] Each individual batch was mixed (1 min) in a food processor, removed for temperature and pH analyses and then placed into a jerky extruder tube. Approximately 25 g of sample were extruded into 50 mL centrifuge, then capped and labeled and placed into a controlled water batch and heated to a designated internal endpoint temperature (132, 158, or 165° F.).
(§4) Samples also contained 547 ppm sodium erythorbate, a cure accelerator (Phase I) and without sodium erythorbate (Phase II). Samples were placed into test tubes and heated in a controlled water bath to 132, 158 and 165° F. Samples were held in a 40° F. cooler for seven days then tested for residual nitrite. Residual nitrite was tested after deproteinization for amino acid analysis by HPLC. Determination of nitrite (UV/VIS Spectrophotometric Method) was used to detect any residual nitrite for best results in detecting minute amounts of nitrite. Residual nitrite levels were read in a 96 well plate reader at 540 nm.
(§5) Both phases of the experiment were designed as a factorial (concentration level and endpoint temperature) randomized complete block design with three replications. […] Least squares means were generated and Tukey's HSD used to determine significance at P≤0.05.

NOS system [4] = assay: NO-heme, total heme, nitrosylation in test beef frankfurters (Example 12)
Experimental: as §1, §2

[5] = tested on: nitric oxide synthase system
Experimental: After thermal processing and chilling according to USDA-FSIS Appendix A—Thermal processing (71° C.) and B—Cooling procedures (2° C.) guidelines, the frankfurters will be vacuum packaged and stored under refrigeration (2° C.) until analyzed at 0, 14, 28 and 56 days post manufacture.
The samples were analyzed for residual nitrite after deproteinization by sample preparation for amino acid analysis by HPLC.
Samples were vacuum packaged and refrigerated and evaluated on Day 1, 7, 14, 28 and 56 post manufacture. Differences between treatment and control samples will be determined using Tukey's Least Significant Difference procedure at P≤0.05 level. The experiment was replicated three times.

[6] = tested on: nitric oxide synthase system; conditions: poultry, Phase I, with 547 ppm sodium erythorbate
Experimental: as §3, §4, §5

[7] = 1000 ppm L-arginine with 547 ppm sodium erythorbate
[8] = 1000 ppm L-arginine, no cure accelerator
[9] = 5000 ppm L-arginine with 547 ppm sodium erythorbate
[10] = 5000 ppm L-arginine, no cure accelerator

## N=C(N)NCCC[C@H](N)C(=O)O [L-arginine]
NOS system [1]; [7]
  Nitrite: 13 ppm and 13.43^bc ppm
NOS system [1]; [8]
  Nitrite: 8.02^d ppm
NOS system [1]; [9]
  Nitrite: 16 ppm and 15.87^b ppm
NOS system [1]; [10]
  Nitrite: 10.64^cd ppm
NOS system [1]; range over L-arginine treated frankfurters after 7 days of storage
  residual nitrite levels: 8.02 to 15.87 ppm
[2]; L-arginine 1000, 2000 and 3000 ppm, with sodium erythorbate, except poultry at 200 ppm sodium nitrite
  residual nitrite values compared to sodium nitrite concentrations of 120, 156 and 200 ppm: comparable
[2]; L-arginine 4000 and 5000 ppm, with sodium erythorbate
  residual nitrite values compared to lower L-arginine concentrations: lower residual nitrite values
[2]; no cure accelerator (sodium erythorbate) included
  residual nitrite values compared to sodium nitrite treated samples: consistently lower; also recorded: lower residual nitrite values
[3]; Phase I, with 547 ppm sodium erythorbate, 1000 ppm L-arginine
  Residual Nitrite, LSMean main effect of Concentration: 57.57 ppm
[3]; Phase I, with 547 ppm sodium erythorbate, 1000 ppm L-arginine, 132° F.
  Residual Nitrite, LSMean Conc × Temp: 39.35 ppm
[3]; Phase I, with 547 ppm sodium erythorbate, 1000 ppm L-arginine, 158° F.
  Residual Nitrite, LSMean Conc × Temp: 70.84 ppm
[3]; Phase I, with 547 ppm sodium erythorbate, 1000 ppm L-arginine, 165° F.
  Residual Nitrite, LSMean Conc × Temp: 62.52 ppm
[3]; Phase I, with 547 ppm sodium erythorbate, 2000 ppm L-arginine
  Residual Nitrite, LSMean main effect of Concentration: 68.91 ppm
[3]; Phase I, with 547 ppm sodium erythorbate, 2000 ppm L-arginine, 132° F.
  Residual Nitrite, LSMean Conc × Temp: 80.08 ppm
[3]; Phase I, with 547 ppm sodium erythorbate, 2000 ppm L-arginine, 158° F.
  Residual Nitrite, LSMean Conc × Temp: 66.63 ppm
[3]; Phase I, with 547 ppm sodium erythorbate, 2000 ppm L-arginine, 165° F.
  Residual Nitrite, LSMean Conc × Temp: 60.04 ppm
[3]; Phase I, with 547 ppm sodium erythorbate, 3000 ppm L-arginine
  Residual Nitrite, LSMean main effect of Concentration: 61.54 ppm
[3]; Phase I, with 547 ppm sodium erythorbate, 3000 ppm L-arginine, 132° F.
  Residual Nitrite, LSMean Conc × Temp: 60.68 ppm
[3]; Phase I, with 547 ppm sodium erythorbate, 3000 ppm L-arginine, 158° F.
  Residual Nitrite, LSMean Conc × Temp: 61.71 ppm
[3]; Phase I, with 547 ppm sodium erythorbate, 3000 ppm L-arginine, 165° F.
  Residual Nitrite, LSMean Conc × Temp: 62.24 ppm
[3]; Phase I, with 547 ppm sodium erythorbate, 4000 ppm L-arginine
  Residual Nitrite, LSMean main effect of Concentration: 52.07 ppm
[3]; Phase I, with 547 ppm sodium erythorbate, 4000 ppm L-arginine, 132° F.
  Residual Nitrite, LSMean Conc × Temp: 48.21 ppm
[3]; Phase I, with 547 ppm sodium erythorbate, 4000 ppm L-arginine, 158° F.
  Residual Nitrite, LSMean Conc × Temp: 52.12 ppm
[3]; Phase I, with 547 ppm sodium erythorbate, 4000 ppm L-arginine, 165° F.
  Residual Nitrite, LSMean Conc × Temp: 55.87 ppm
[3]; Phase I, with 547 ppm sodium erythorbate, 5000 ppm L-arginine
  Residual Nitrite, LSMean main effect of Concentration: 64.52 ppm
[3]; Phase I, with 547 ppm sodium erythorbate, 5000 ppm L-arginine, 132° F.
  Residual Nitrite, LSMean Conc × Temp: 40.28 ppm
[3]; Phase I, with 547 ppm sodium erythorbate, 5000 ppm L-arginine, 158° F.
  Residual Nitrite, LSMean Conc × Temp: 65.12 ppm
[3]; Phase I, with 547 ppm sodium erythorbate, 5000 ppm L-arginine, 165° F.
  Residual Nitrite, LSMean Conc × Temp: 88.16 ppm
[3]; Phase I, with 547 ppm sodium erythorbate, 132° F.
  Residual Nitrite, LSMean main effect of Temperature: 53.72 ppm
[3]; Phase I, with 547 ppm sodium erythorbate, 158° F.
  Residual Nitrite, LSMean main effect of Temperature: 63.29 ppm
[3]; Phase I, with 547 ppm sodium erythorbate, 165° F.
  Residual Nitrite, LSMean main effect of Temperature: 65.72 ppm
[3]; Phase II, without 547 ppm sodium erythorbate, 1000 ppm L-arginine
  Residual Nitrite, LSMean main effect of Concentration: 73.46^b ppm and 73.46 ppm
[3]; Phase II, without 547 ppm sodium erythorbate, 1000 ppm L-arginine, 132° F.
  Residual Nitrite, LSMean Conc × Temperature: 53.73^c ppm
[3]; Phase II, without 547 ppm sodium erythorbate, 1000 ppm L-arginine, 158° F.
  Residual Nitrite, LSMean Conc × Temperature: 84.43^bc ppm
[3]; Phase II, without 547 ppm sodium erythorbate, 1000 ppm L-arginine, 165° F.
  Residual Nitrite, LSMean Conc × Temperature: 82.22^bc ppm
[3]; Phase II, without 547 ppm sodium erythorbate, 2000 ppm L-arginine
  Residual Nitrite, LSMean main effect of Concentration: 94.97^ab ppm and 94.97 ppm
[3]; Phase II, without 547 ppm sodium erythorbate, 2000 ppm L-arginine, 132° F.
  Residual Nitrite, LSMean Conc × Temperature: 85.87^bc ppm
[3]; Phase II, without 547 ppm sodium erythorbate, 2000 ppm L-arginine, 158° F.
  Residual Nitrite, LSMean Conc × Temperature: 113.28^ab ppm
[3]; Phase II, without 547 ppm sodium erythorbate, 2000 ppm L-arginine, 165° F.
  Residual Nitrite, LSMean Conc × Temperature: 85.76^bc ppm
[3]; Phase II, without 547 ppm sodium erythorbate, 3000 ppm L-arginine
  Residual Nitrite, LSMean main effect of Concentration: 85.31^ab ppm and 85.31 ppm
[3]; Phase II, without 547 ppm sodium erythorbate, 3000 ppm L-arginine, 132° F.
  Residual Nitrite, LSMean Conc × Temperature: 68.26^bc ppm
[3]; Phase II, without 547 ppm sodium erythorbate, 3000 ppm L-arginine, 158° F.
  Residual Nitrite, LSMean Conc × Temperature: 90.54^bc ppm
[3]; Phase II, without 547 ppm sodium erythorbate, 3000 ppm L-arginine, 165° F.
  Residual Nitrite, LSMean Conc × Temperature: 97.13^bc ppm
[3]; Phase II, without 547 ppm sodium erythorbate, 4000 ppm L-arginine
  Residual Nitrite, LSMean main effect of Concentration: 102.65^a ppm and 102.65 ppm
[3]; Phase II, without 547 ppm sodium erythorbate, 4000 ppm L-arginine, 132° F.
  Residual Nitrite, LSMean Conc × Temperature: 71.48^bc ppm
[3]; Phase II, without 547 ppm sodium erythorbate, 4000 ppm L-arginine, 158° F.
  Residual Nitrite, LSMean Conc × Temperature: 150.78^a ppm
[3]; Phase II, without 547 ppm sodium erythorbate, 4000 ppm L-arginine, 165° F.
  Residual Nitrite, LSMean Conc × Temperature: 85.70^bc ppm
[3]; Phase II, without 547 ppm sodium erythorbate, 5000 ppm L-arginine
  Residual Nitrite, LSMean main effect of Concentration: 72.06^b ppm and 72.06 ppm
[3]; Phase II, without 547 ppm sodium erythorbate, 5000 ppm L-arginine, 132° F.
  Residual Nitrite, LSMean Conc × Temperature: 59.74^c ppm
[3]; Phase II, without 547 ppm sodium erythorbate, 5000 ppm L-arginine, 158° F.
  Residual Nitrite, LSMean Conc × Temperature: 77.63^bc ppm
[3]; Phase II, without 547 ppm sodium erythorbate, 5000 ppm L-arginine, 165° F.
  Residual Nitrite, LSMean Conc × Temperature: 78.82^bc ppm
[3]; Phase II, without 547 ppm sodium erythorbate, 132° F.
  Residual Nitrite, LSMean main effect of Temperature: 67.81^c ppm and 67.81 ppm
[3]; Phase II, without 547 ppm sodium erythorbate, 158° F.
  Residual Nitrite, LSMean main effect of Temperature: 103.33^a ppm and 103.33 ppm
[3]; Phase II, without 547 ppm sodium erythorbate, 165° F.
  Residual Nitrite, LSMean main effect of Temperature: 85.93^b ppm and 85.93 ppm
NOS system [4]; [7]
  NO-Heme: 23.59^ab ppm
  Nitrosylation: 59.68^a %
  Total Heme: 40.35^a ppm
NOS system [4]; [8]
  NO-Heme: 17.79^b ppm
  Nitrosylation: 43.64^a %
  Total Heme: 41.71^a ppm
NOS system [4]; [9]
  NO-Heme: 28.32^a ppm
  Nitrosylation: 55.59^a %
  Total Heme: 51.00^a ppm
NOS system [4]; [10]
  NO-Heme: 27.94^a ppm
  Nitrosylation: 54.26^a %
  Total Heme: 52.81^a ppm
NOS system [4]; range over L-arginine frankfurters
  Cure color (nitrosylation): 43.64 to 59.68%
[5]; 3000 ppm L-arginine, Day 1
  residual sodium nitrite: 55.90
[5]; 3000 ppm L-arginine, Day 7
  residual sodium nitrite: 55.83
[5]; 3000 ppm L-arginine, Day 14
  residual sodium nitrite: 62.60
[5]; 3000 ppm L-arginine, Day 28
  residual sodium nitrite: 58.68
[5]; 4000 ppm L-arginine, Day 1
  residual sodium nitrite: 49.92
[5]; 4000 ppm L-arginine, Day 7
  residual sodium nitrite: 60.36
[5]; 4000 ppm L-arginine, Day 14
  residual sodium nitrite: 53.71
[5]; 4000 ppm L-arginine, Day 28
  residual sodium nitrite: 79.07
[5]; 5000 ppm L-arginine, Day 1
  residual sodium nitrite: 73.95
[5]; 5000 ppm L-arginine, Day 7
  residual sodium nitrite: 61.77
[5]; 5000 ppm L-arginine, Day 14
  residual sodium nitrite: 52.91
[5]; 5000 ppm L-arginine, Day 28
  residual sodium nitrite: 100.11
[6]; 1000 ppm L-arginine
  Residual Nitrite, LSMean main effect of Concentration: 65.44^ab ppm and 65.44 ppm
[6]; 1000 ppm L-arginine, 132° F.
  Residual Nitrite, LSMean Conc × Temp: 76.46^ab ppm
[6]; 1000 ppm L-arginine, 158° F.
  Residual Nitrite, LSMean Conc × Temp: 60.52^abc ppm
[6]; 1000 ppm L-arginine, 165° F.
  Residual Nitrite, LSMean Conc × Temp: 59.36^abc ppm
[6]; 2000 ppm L-arginine
  Residual Nitrite, LSMean main effect of Concentration: 72.28^a ppm and 72.28 ppm
[6]; 2000 ppm L-arginine, 132° F.
  Residual Nitrite, LSMean Conc × Temp: 63.44^abc ppm
[6]; 2000 ppm L-arginine, 158° F.
  Residual Nitrite, LSMean Conc × Temp: 77.50^a ppm
[6]; 2000 ppm L-arginine, 165° F.
  Residual Nitrite, LSMean Conc × Temp: 75.91^ab ppm
